Measurements published in US10597388B2, “Pyridazinone herbicides” (FMC CORPORATION, priority 2014, dated 2020).

What was measured:
Assay in all cases: Test D controlled growth environment herbicide test, pre- and postemergence
Assay type in all cases: in vivo
[1] = test system: foxtail, green (green foxtail, Setaria viridis)
Method in brief: (§1)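 Rating is visual, 0–100 scale (100 = complete control), made against untreated plants 14–21 d after treatment in controlled growth conditions. Postemergence sprays went onto 1- to 4-leaf plants in peat medium; preemergence sprays onto silt loam after sowing; formulation included a surfactant.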

[2] = test system: field poppy (Papaver rhoeas)
Method in brief: as §1

[3] = test system: ryegrass, Italian (Italian ryegrass, Lolium multiflorum)
Method in brief: as §1

[4] = test system: chamomile (scentless chamomile, Matricaria inodora)
Method in brief: as §1

[5] = test system: barley, spring (spring barley, Hordeum vulgare)
Method in brief: as §1

[6] = test system: wheat, winter (winter wheat, Triticum aestivum)
Method in brief: as §1

[7] = test system: bromegrass, downy (downy bromegrass, Bromus tectorum)
Method in brief: as §1

[8] = test system: deadnettle (henbit deadnettle, Lamium amplexicaule)
Method in brief: as §1

[9] = test system: blackgrass (Alopecurus myosuroides)
Method in brief: as §1

[10] = test system: lambsquarters (Chenopodium album)
Method in brief: as §1

[11] = test system: wheat, spring (spring wheat, Triticum aestivum)
Method in brief: as §1

[12] = test system: chickweed (common chickweed, Stellaria media)
Method in brief: as §1

[13] = test system: barley, winter (winter barley, Hordeum vulgare)
Method in brief: as §1

[14] = Postemergence, 31 g ai/ha, scale 0 to 100 (0 no effect, 100 complete control)
[15] = Postemergence, 125 g ai/ha, visual rating on scale 0 (no effect) to 100 (complete control), 14 to 21 d
[16] = Postemergence, 250 g ai/ha, scale 0 to 100 (0 no effect, 100 complete control)
[17] = Preemergence, 62 g ai/ha, scale 0 to 100 (0 no effect, 100 complete control)
[18] = Preemergence, 125 g ai/ha, scale 0 to 100 (0 no effect, 100 complete control)
[19] = Preemergence, 250 g ai/ha, scale 0 to 100 (0 no effect, 100 complete control)
[20] = postemergence, 62 g ai/ha, scale 0 to 100, 0 no effect, 100 complete control

Cc1cc(C)c2sc(C)c(-c3c(OC(=O)OC(C)C)c(C)nn(C)c3=O)c2c1 [Compound 67]
100: Plant response rating, Foxtail, Green [1, 15] | Plant response rating, Foxtail, Green [1, 16] | Plant response rating, Field Poppy [2, 15] | Plant response rating, Field Poppy [2, 16] | Plant response rating (scale of 0 to 100), Field Poppy ([2]; Preemergence, 31 g ai/ha) | Plant response rating, Field Poppy [2, 17] | Plant response rating, Field Poppy [2, 18] | Plant response rating, Field Poppy [2, 19] | Plant response rating, Field Poppy [2, 20] | Plant response rating, Ryegrass, Italian [3, 16] | Plant response rating, Chamomile [4, 15] | Plant response rating, Chamomile [4, 16] | Plant response rating, Chamomile [4, 18] | Plant response rating, Chamomile [4, 19] | Plant response rating, Chamomile [4, 20] | Plant response rating, Lambsquarters [10, 15] | Plant response rating, Lambsquarters [10, 16] | Plant response rating, Lambsquarters [10, 17] | Plant response rating, Lambsquarters [10, 18] | Plant response rating, Lambsquarters [10, 19] | Plant response rating, Lambsquarters [10, 20] | Plant response rating, Chickweed [12, 15] | Plant response rating, Chickweed [12, 16] | Plant response rating (scale of 0 to 100), Chickweed ([12]; Preemergence, 31 g ai/ha) | Plant response rating, Chickweed [12, 17] | Plant response rating, Chickweed [12, 18] | Plant response rating, Chickweed [12, 19] | Plant response rating, Chickweed [12, 20]
98: Plant response rating, Ryegrass, Italian [3, 15]
20: Plant response rating, Barley, Spring [5, 16]
75: Plant response rating (scale of 0 to 100), Ryegrass, Italian ([3]; Preemergence, 31 g ai/ha) | Plant response rating (scale of 0 to 100), Blackgrass ([9]; Preemergence, 31 g ai/ha) | Plant response rating, Blackgrass [9, 17] | Plant response rating, Blackgrass [9, 18] | Plant response rating, Blackgrass [9, 20]
85: Plant response rating, Foxtail, Green [1, 18] | Plant response rating, Foxtail, Green [1, 19] | Ryegrass, Italian plant response rating [3, 14] | Plant response rating, Ryegrass, Italian [3, 18] | Plant response rating, Blackgrass [9, 15] | Chickweed plant response rating [12, 14]
30: Plant response rating, Deadnettle [8, 17] | Plant response rating, Deadnettle [8, 20]
10: Plant response rating, Barley, Spring [5, 15] | Plant response rating, Wheat, Spring [11, 19] | Plant response rating, Barley, Winter [13, 16]
5: Plant response rating, Barley, Spring [5, 20] | Plant response rating, Wheat, Winter [6, 19] | Plant response rating, Wheat, Spring [11, 16] | Plant response rating, Barley, Winter [13, 15]
80: Foxtail, Green plant response rating [1, 14] | Plant response rating, Foxtail, Green [1, 17] | Field Poppy plant response rating [2, 14] | Plant response rating, Ryegrass, Italian [3, 17] | Plant response rating, Blackgrass [9, 19]
25: Plant response rating (scale of 0 to 100), Bromegrass, Downy ([7]; Preemergence, 31 g ai/ha)
0: Barley, Spring plant response rating [5, 14] | Plant response rating (scale of 0 to 100), Barley, Spring ([5]; Preemergence, 31 g ai/ha) | Plant response rating, Barley, Spring [5, 17] | Plant response rating, Barley, Spring [5, 18] | Plant response rating, Barley, Spring [5, 19] | Wheat, Winter plant response rating [6, 14] | Plant response rating, Wheat, Winter [6, 15] | Plant response rating, Wheat, Winter [6, 16] | Plant response rating (scale of 0 to 100), Wheat, Winter ([6]; Preemergence, 31 g ai/ha) | Plant response rating, Wheat, Winter [6, 17] | Plant response rating, Wheat, Winter [6, 18] | Plant response rating, Wheat, Winter [6, 20] | Wheat, Spring plant response rating [11, 14] | Plant response rating, Wheat, Spring [11, 15] | Plant response rating (scale of 0 to 100), Wheat, Spring ([11]; Preemergence, 31 g ai/ha) | Plant response rating, Wheat, Spring [11, 17] | Plant response rating, Wheat, Spring [11, 18] | Plant response rating, Wheat, Spring [11, 20] | Barley, Winter plant response rating [13, 14] | Plant response rating (scale of 0 to 100), Barley, Winter ([13]; Preemergence, 31 g ai/ha) | Plant response rating, Barley, Winter [13, 17] | Plant response rating, Barley, Winter [13, 18] | Plant response rating, Barley, Winter [13, 19] | Plant response rating, Barley, Winter [13, 20]
60: Bromegrass, Downy plant response rating [7, 14] | Plant response rating, Bromegrass, Downy [7, 20] | Plant response rating, Deadnettle [8, 16] | Plant response rating, Deadnettle [8, 19]
40: Deadnettle plant response rating [8, 14] | Plant response rating, Deadnettle [8, 15]
55: Plant response rating, Deadnettle [8, 18]
65: Plant response rating, Bromegrass, Downy [7, 15]
15: Plant response rating (scale of 0 to 100), Foxtail, Green ([1]; Preemergence, 31 g ai/ha) | Plant response rating (scale of 0 to 100), Deadnettle ([8]; Preemergence, 31 g ai/ha)
35: Plant response rating, Bromegrass, Downy [7, 17] | Plant response rating, Bromegrass, Downy [7, 18]
70: Plant response rating, Bromegrass, Downy [7, 16] | Plant response rating, Bromegrass, Downy [7, 19] | Blackgrass plant response rating [9, 14]
95: Chamomile plant response rating [4, 14] | Plant response rating (scale of 0 to 100), Chamomile ([4]; Preemergence, 31 g ai/ha) | Plant response rating, Chamomile [4, 17] | Plant response rating, Blackgrass [9, 16] | Plant response rating (scale of 0 to 100), Lambsquarters ([10]; Preemergence, 31 g ai/ha)
90: Plant response rating, Foxtail, Green [1, 20] | Plant response rating, Ryegrass, Italian [3, 19] | Plant response rating, Ryegrass, Italian [3, 20] | Lambsquarters plant response rating [10, 14]
